Tests used:
[1] = molecular target: aminopeptidase B (Homo sapiens, UniProt Q9H4A4); settings: cited from earlier work
[2] = tested on: male Charles River rats; test: D'Amour-Smith rat tail-flick procedure (radiant heat, 8 second cut-off), intraventricular injection; type: in vivo
Protocol: Intraventricular cannulae, made of 27-gauge stainless steel tubing, are implanted in 300-400 g. male Charles River rats under pentobarbital anesthesia. After a recovery period of at least one week, the rats are restrained in a wire-mesh cylindrical chamber so that the tip of the tail can be positioned at the focal point of a radiant heat source. After an acclimatistation period of 5 minutes, the lamp is turned on and an electric clock activated. Movement of the tip of the tail exposes a photocell to the lamp, which turns off the thermal stimulus and stops the clock. If a rat fails to move its tail within 8 seconds, the heat is automatically turned off to prevent blistering. The intensity of the lamp is adjusted in each case to produce at least three baseline tail-flick latencies of 2.5-4.5 seconds. Tests are initially made every 2 minutes, then every 5 minutes and finally every 15 minutes.
Initially, using the above outlined procedure, the effects of intraventricularly administered leucine-enkephalin are tested in rats according to the above procedure.
The rat tail flick procedure is repeated, first by the simultaneous intraventricular injection of both leucine-enkephalin and bestatin and then by the initial injection of bestatin followed one hour later by the injection of leucine-enkephalin.
The above procedure is repeated again, however, the bestatin is administered first and then one hour later the leucine-enkephalin is administered.
The effects of bestatin alone are tested in rats according to the rat tail flick procedure.

aminopeptidase B, sequence (Q9H4A4 whole entry, species assumed): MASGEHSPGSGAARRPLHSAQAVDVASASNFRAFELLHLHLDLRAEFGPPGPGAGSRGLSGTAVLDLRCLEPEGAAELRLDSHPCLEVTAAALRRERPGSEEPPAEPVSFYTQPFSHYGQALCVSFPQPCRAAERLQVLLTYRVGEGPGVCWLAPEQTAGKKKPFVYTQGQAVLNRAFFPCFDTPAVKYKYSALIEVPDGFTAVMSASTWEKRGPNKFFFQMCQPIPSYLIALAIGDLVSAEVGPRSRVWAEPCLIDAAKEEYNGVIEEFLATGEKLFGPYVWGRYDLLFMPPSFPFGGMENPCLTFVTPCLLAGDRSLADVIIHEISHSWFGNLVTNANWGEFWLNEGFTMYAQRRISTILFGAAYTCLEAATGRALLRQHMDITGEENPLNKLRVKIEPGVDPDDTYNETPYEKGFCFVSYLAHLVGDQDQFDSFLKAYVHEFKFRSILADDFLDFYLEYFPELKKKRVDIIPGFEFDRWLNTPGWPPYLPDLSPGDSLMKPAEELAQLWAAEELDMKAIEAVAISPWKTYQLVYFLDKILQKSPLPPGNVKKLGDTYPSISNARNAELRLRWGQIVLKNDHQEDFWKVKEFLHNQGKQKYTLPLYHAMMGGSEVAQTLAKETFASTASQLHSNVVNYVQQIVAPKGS

Question: What does the source list for `CC(C)C[C@H](NC(=O)[C@@H](O)[C@H](N)Cc1ccccc1)C(=O)O` [bestatin, [(2S,3R)-3-amino-2-hydroxy-4-phenylbutanoyl]-L-leucine]?
Answer: Inhibition of aminopeptidase B [1]: inhibitors; Tail-flick latency ([2]; 200 μg bestatin alone into lateral ventricle, Rat 1, 2 min): 4.92 s; Tail-flick latency ([2]; 200 μg bestatin alone into lateral ventricle, Rat 1, 4 min): 7.36 s; Tail-flick latency ([2]; 200 μg bestatin into lateral ventricle, 200 μg leucine-enkephalin one hour later, 1 rat, 2 min after leucine-enkephalin): 8.00 s; Tail-flick latency ([2]; 200 μg bestatin into lateral ventricle, 200 μg leucine-enkephalin one hour later, 1 rat, 4 min after leucine-enkephalin): 8.00 s; Tail-flick latency ([2]; 200 μg bestatin into lateral ventricle, 200 μg leucine-enkephalin one hour later, 1 rat, 6 min after leucine-enkephalin): 8.00 s; Tail-flick latency ([2]; 200 μg bestatin into lateral ventricle, 200 μg leucine-enkephalin one hour later, 1 rat, 8 min after leucine-enkephalin): 8.00 s; Tail-flick latency ([2]; 200 μg bestatin into lateral ventricle, 200 μg leucine-enkephalin one hour later, 1 rat, 10 min after leucine-enkephalin): 8.00 s; Tail-flick latency ([2]; 200 μg bestatin into lateral ventricle, 200 μg leucine-enkephalin one hour later, 1 rat, 12 min after leucine-enkephalin): 8.00 s; Tail-flick latency ([2]; 200 μg bestatin into lateral ventricle, 200 μg leucine-enkephalin one hour later, 1 rat, 14 min after leucine-enkephalin): 8.00 s; Tail-flick latency ([2]; 200 μg bestatin into lateral ventricle, 200 μg leucine-enkephalin one hour later, 1 rat, 19 min after leucine-enkephalin): 8.00 s; Tail-flick latency ([2]; 200 μg bestatin into lateral ventricle, 200 μg leucine-enkephalin one hour later, 1 rat, 24 min after leucine-enkephalin): 8.00 s; Tail-flick latency ([2]; 200 μg bestatin into lateral ventricle, 200 μg leucine-enkephalin one hour later, 1 rat, 29 min after leucine-enkephalin): 8.00 s; Tail-flick latency ([2]; 200 μg bestatin into lateral ventricle, 200 μg leucine-enkephalin one hour later, 1 rat, 34 min after leucine-enkephalin): 8.00 s; Tail-flick latency ([2]; 200 μg bestatin into lateral ventricle, 200 μg leucine-enkephalin one hour later, 1 rat, 53 min after leucine-enkephalin): 8.00 s; Tail-flick latency ([2]; 200 μg bestatin into lateral ventricle, 200 μg leucine-enkephalin one hour later, 1 rat, 58 min after leucine-enkephalin): 8.00 s; Tail-flick latency ([2]; 200 μg bestatin into lateral ventricle, 200 μg leucine-enkephalin one hour later, 1 rat, 63 min after leucine-enkephalin): 6.07 s; Tail-flick latency ([2]; 200 μg bestatin into lateral ventricle, 200 μg leucine-enkephalin one hour later, 1 rat, 68 min after leucine-enkephalin): 2.62 s; Tail-flick latency ([2]; 200 μg leucine-enkephalin + 200 μg bestatin injected together into lateral ventricle, 1 rat, 2 min): 4.21 s; Tail-flick latency ([2]; 200 μg leucine-enkephalin + 200 μg bestatin injected together into lateral ventricle, 1 rat, 4 min): 5.75 s; Tail-flick latency ([2]; 200 μg leucine-enkephalin + 200 μg bestatin injected together into lateral ventricle, 1 rat, 8 min): 8.00 s; Tail-flick latency ([2]; 200 μg leucine-enkephalin + 200 μg bestatin injected together into lateral ventricle, 1 rat, 10 min): 8.00 s; Tail-flick latency ([2]; 200 μg leucine-enkephalin + 200 μg bestatin injected together into lateral ventricle, 1 rat, 12 min): 8.00 s; Tail-flick latency ([2]; 200 μg leucine-enkephalin + 200 μg bestatin injected together into lateral ventricle, 1 rat, 14 min): 8.00 s; Tail-flick latency ([2]; 200 μg leucine-enkephalin + 200 μg bestatin injected together into lateral ventricle, 1 rat, 19 min): 8.00 s; Tail-flick latency ([2]; 200 μg leucine-enkephalin + 200 μg bestatin injected together into lateral ventricle, 1 rat, 24 min): 8.00 s; Tail-flick latency ([2]; 200 μg leucine-enkephalin + 200 μg bestatin injected together into lateral ventricle, 1 rat, 29 min): 8.00 s; Tail-flick latency ([2]; 200 μg leucine-enkephalin + 200 μg bestatin injected together into lateral ventricle, 1 rat, 34 min): 8.00 s; Tail-flick latency ([2]; 200 μg leucine-enkephalin + 200 μg bestatin injected together into lateral ventricle, 1 rat, 39 min): 8.00 s; Tail-flick latency ([2]; 200 μg leucine-enkephalin + 200 μg bestatin injected together into lateral ventricle, 1 rat, 53 min): 8.00 s; Tail-flick latency ([2]; 200 μg leucine-enkephalin + 200 μg bestatin injected together into lateral ventricle, 1 rat, 58 min): 8.00 s; Tail-flick latency ([2]; 200 μg leucine-enkephalin + 200 μg bestatin injected together into lateral ventricle, 1 rat, 63 min): 4.65 s; Tail-flick latency ([2]; 200 μg leucine-enkephalin + 200 μg bestatin injected together into lateral ventricle, 1 rat, 68 min): 8.00 s; Tail-flick latency ([2]; 200 μg leucine-enkephalin + 200 μg bestatin injected together into lateral ventricle, 1 rat, 73 min): 4.95 s; Tail-flick latency ([2]; 200 μg leucine-enkephalin + 200 μg bestatin injected together into lateral ventricle, 1 rat, 78 min): 2.10 s; Analgesia induced by bestatin alone ([2]; 200 μg level, lateral ventricle, rat): does not appear to induce any clearcut analgesia; Tail-flick latency ([2]; 400 μg bestatin alone into lateral ventricle, Rat 1, 210 min): 8.00 s; Tail-flick latency ([2]; 400 μg bestatin alone into lateral ventricle, Rat 1, 225 min): 8.00 s; Tail-flick latency ([2]; 400 μg bestatin alone into lateral ventricle, Rat 1, 240 min): 8.00 s; Tail-flick latency ([2]; 400 μg bestatin alone into lateral ventricle, Rat 1, 255 min): 4.71 s; Tail-flick latency ([2]; 400 μg bestatin alone into lateral ventricle, Rat 2, 2 min): 2.16 s; Tail-flick latency ([2]; 400 μg bestatin alone into lateral ventricle, Rat 2, 4 min): 5.40 s; Tail-flick latency ([2]; 400 μg bestatin alone into lateral ventricle, Rat 2, 6 min): 4.62 s; Tail-flick latency ([2]; 400 μg bestatin alone into lateral ventricle, Rat 2, 8 min): 6.51 s; Tail-flick latency ([2]; 400 μg bestatin alone into lateral ventricle, Rat 2, 10 min): 8.00 s; Tail-flick latency ([2]; 400 μg bestatin alone into lateral ventricle, Rat 2, 12 min): 8.00 s; Tail-flick latency ([2]; 400 μg bestatin alone into lateral ventricle, Rat 2, 14 min): 8.00 s; Tail-flick latency ([2]; 400 μg bestatin alone into lateral ventricle, Rat 2, 16 min): 8.00 s; Tail-flick latency ([2]; 400 μg bestatin alone into lateral ventricle, Rat 2, 18 min): 8.00 s; Tail-flick latency ([2]; 400 μg bestatin alone into lateral ventricle, Rat 2, 20 min): 8.00 s; Tail-flick latency ([2]; 400 μg bestatin alone into lateral ventricle, Rat 2, 22 min): 8.00 s; Tail-flick latency ([2]; 400 μg bestatin alone into lateral ventricle, Rat 2, 24 min): 8.00 s; Tail-flick latency ([2]; 400 μg bestatin alone into lateral ventricle, Rat 2, 26 min): 8.00 s

Source: patent US4308256A, “Method of inducing analgesia” (American Home Products Corporation, priority 1980, dated 1981)
